Consider six molecules from US20210169985A1, “METHODS FOR TREATING GRAM POSITIVE BACTERIAL INFECTION” (INSERM (Institut National de la Santé et de la Recherche …, priority 2018, published 2021).

Entries after “also recorded” stand apart in the source; their conditions may differ. *1 amine or outer side, *2 acyl side, *3 side chain or, on linkers, in order; H or OH if unused. Where a SMILES comes first, the peptide text is derived from it. Bridges are numbered along the chain shown (N, C = ends). Roman numbers before positions name the chains, in order. [ ]: non-standard residue; d: D form. Actinocin(9to1) = Cc1c2oc3c(C)ccc(C(=O)[*:1])c3nc-2c(C(=O)[*:2])c(N)c1=O; NMeV = CN[C@H](C(=O)O)C(C)C; Sar = CNCC(=O)O

Experiment [1] has as its system CXCL1 production in keratinocytes. The experiment is described as follows: Cytokine quantification in supernatant of murine primary keratinocytes. The experiment is classed as cell-based. Conditions: for effect of inhibitor on hepcidin-induced CXCL1 production: murine primary keratinocytes with 3.6 μM hepcidin, inhibitor added 30 minutes before (FIG. 2C); for CXCL1 production by keratinocytes: stimulated 1 or 3 hours vs PBS; for CXCL1 levels in the cell culture supernatant: 3 hours. Here is the method: Keratinocytes were isolated from the skin of 2-day-old WT or Hepc^Δkerat mice, based on modifications from a previously described protocol^8. In brief, dermis were easily separated from epidermis after floating newborn mice skin on freshly thawed cold trypsin 0.25% (thermo fisher 15050065) overnight at 4° C. with the dermis side down. Cells were isolated in stop trypsin medium (DMEM, high glucose, no glutamine, no calcium (thermo fisher 21068028) containing 20% heat inactivated and Chelex (Bio rad 1421253) treated—FBS, 1% GlutaMAXSupplement (thermo fisher 35050061), 1% Sodium Pyruvate (thermo fisher 11360070), 100 U/ml Penicillin, 100 μg/ml Streptomycin (thermo fisher), 2.5 μg/ml Amphotericin B (Gibco)).
Keratinocytes were obtained by epidermis mechanical dissociation through shaking at 350 rpm for 1 hour at 37° C. The resulting cell suspension was filtered through 100 μm filter, centrifuged at 250 g for 10 min at 4° C., plated on fibronectin and bovine collagen I coated tissue culture plate and incubated at 37° C. in a humidified 5% CO2 atmosphere. The cells were cultured in 0.07 mM calcium medium (low Ca^2+) containing EGF (10 ng/ml) and cholera toxin (10^−10 mol/L). Once confluence reached, cells were switched in 1.2 mM calcium medium (high Ca^2+) in order to assure their differentiation. After three days in high Ca′ cells were differentiated and suitable for different experiments.
(§1) Keratinocytes, previously starved of FBS for 1 hour, were treated with 1 or 10 μg/ml hepcidin (Peptide International) and incubated for different time points. In some experiments, inhibitors were added 30 minutes before hepcidin treatment during FBS starving: brefaldin A (sigma B7651), cycloheximide (sigma C7698), actinomycinD (sigma A1410). The cells were lysed with Tri reagent (sigma) while supernatant cytokines were measured with the V-PLEX Proinflammatory Panel1 kit (Meso Scale Discovery), according to the manufacturer's instruction.

Experiment [2] has as its system GAS NZ131. The experiment is described as follows: GAS growth inhibition (bacteriostatic) assay. The experiment is classed as cell-based, Group A Streptococcus. Conditions: in vitro, overnight growth, hepcidin and LL-37 at the same concentration (FIG. 3A). How it is done:
(§2) As previously described, 9 GAS NZ131 were grown in Todd Hewitt Broth (THB, Sigma) plus 0.3% yeast extract to early log phase (absorbance at 600 nm, A600=0,2). Bacteria were then diluted in THB to A600=0,001 (≈2×10^5 colony forming units (c.f.u.) m1-1). This bacterial suspension was kept growing overnight at 37° C. in presence of PBS, LL-37, hepcidin (peptide international) or penicillin G (sigma P7794). For antimicrobial killing kinetics, exponential phase GAS (A600=0,4) was exposed to PBS or LL-37 or hepcidin and incubated at 37° C. At different time point serial dilutions of these bacterial suspensions were plated on THA plate for counting surviving c.f.u.

The subject of experiment [3] is GAS NZ131. The experiment is described as follows: GAS antimicrobial killing kinetics (bactericidal) assay. Format: cell-based, Group A Streptococcus. The settings on record: added to the culture medium at 4 μg/ml (FIG. 3B; legend says 32 μM). Here is the method:
as §2

Another experiment relates to CXCL1 mRNA. Put plainly: CXCL1 mRNA expression by Q-PCR in primary keratinocytes. The settings on record: WT primary keratinocytes, 1 and 3 hours, 360 nM or 3.6 μM (FIG. 2B). Format: cell-based, murine. How it is done: RNA extraction, reverse transcription and quantitative PCR have been performed as previously described {Zumerle, 2014 #46}. All samples were normalized to the threshold cycle value for cyclophilin-A.
as §1

For experiment [4], the system named is GAS. The experiment is described as follows: Therapeutic treatment in GAS induced necrotizing soft tissue infection model. The experiment is classed as in vivo, C57BL6 mice. How it is done: (§3) A well-established model of necrotizing soft tissue infection was adapted for this study (^7,^9). In brief, 100 μl of a mid logarithmic growth phase (approximately 10^7 c.f.u.) of GAS was mixed with an equal volume of sterile Cytodex beads (Sigma-Aldrich) and injected subcutaneously into the flank of 8- to 12-week-old WT and Hepc^Δkerat14 male littermates, previously shaved (veet hair removal cream). Weight loss and lesion size of mice were daily estimated. After 96 hours mice were sacrificed, skin necrotic ulcers, spleen, and blood (via retro orbital bleeding) were recovered and homogenized in 1:2 mg/μl of sterile PBS. Serial dilutions of tissue homogenate were stretched on THA plates, in order to enumerate living c.f.u.
For therapeutic treatment C57BL6 mice were infected as described above. One day after infection, animals were subcutaneously injected with PBS (control) or 1 μg of hepcidin (peptide international). Mice were treated again at 48 and 72 hours with 500 ng of hepc-25. After 96 hours mice were sacrificed, spleens were taken, homogenized for c.f.u. enumeration.

For experiment [5], the system named is GAS. Put plainly: CXCL1 rescue experiment in GAS-infected Hepc Δkerat mice. Format: in vivo. Conditions: subcutaneous 1 μg/mouse daily, four days after GAS injection. How it is done:
as §3
For rescue experiment WT and Hepc^Δkerat littermates were subcutaneously infected with 10^7 c.f.u. of GAS with mock or 1 μg/mouse of rCXCL1 (R&D system, 1395-KC-025/CF). Mice were intralesionally injected again at 24, 48 and 72 h with mock or 1 μg of rCXCL1.

For the molecule `Cc1c2oc3c(C)ccc(C(=O)N[C@@H]4C(=O)N[C@H](C(C)C)C(=O)N5CCC[C@H]5C(=O)N(C)CC(=O)N(C)[C@@H](C(C)C)C(=O)O[C@@H]4C)c3nc-2c(C(=O)N[C@@H]2C(=O)N[C@H](C(C)C)C(=O)N3CCC[C@H]3C(=O)N(C)CC(=O)N(C)[C@@H](C(C)C)C(=O)O[C@@H]2C)c(N)c1=O` [actinomycin D, actinomycinD, reference compound] (I: T[dV]P[Sar][NMeV] / II: T[dV]P[Sar][NMeV]; ester I:1-I:C, II:1-II:C; linker I:N-II:N via Actinocin(9to1)), the “effect of inhibitor on hepcidin-induced CXCL1 production” value in experiment [1] is on record as “not”.
Turning to “mini-hepcidin: murine mini-hepcidin consisting in the 9 N-terminal amino acids of hepcidin (DTNFPICIF; Hepcidin; UniProt Q9EQ21 59-67, looked up, fragment) [reference compound]”, the “CXCL1 production by keratinocytes” value in experiment [1] (murine primary keratinocytes) is listed as “not able to trigger CXCL1 production”; in experiment [1] (murine primary keratinocytes, listed as Mini-hepcidin), “does bot promote CXCL1 production”.
Take `C[C@@H]1C[C@@H]([C@H](O)CC2CC(=O)NC(=O)C2)C(=O)[C@@H](C)C1` [Cycloheximide, cycloheximide, reference compound]: the “effect of inhibitor on hepcidin-induced CXCL1 production” value in experiment [1] is on record as “significantly reduced”.
As for “hepcidin: mature 25-amino acid form of hepcidin (hepc-25), obtained from Peptide International”, in the experiment with GAS NZ131 [2], the “bacteriostatic effect against GAS (inhibition of GAS growth)” value is recorded as “no antimicrobial activity; also recorded: no direct bacteriostatic effect”. The “bactericidal activity against GAS (bacterial titers vs control)” value with GAS NZ131 [3] was “no effect”. Further, the “production of other tested inflammatory cytokines” value in experiment [1] (murine primary keratinocytes, 360 nM and 3.6 μM hepcidin) is reported as “not”. Besides, the “CXCL1 levels in the cell culture supernatant” value is 150 pg/mL in experiment [1] (murine primary keratinocytes, 360 nM) and 50 pg/mL in experiment [1] (murine primary keratinocytes, 3.6 μM). The “CXCL1 production by keratinocytes” value in experiment [1] (murine primary keratinocytes) is recorded as “dose dependent increase”. The “CXCL1 expression at the mRNA level” value in the experiment with CXCL1 mRNA is listed as “did not increase”. The “treated mice with no systemic bacterial dissemination (bacteria in the spleen)” value in the experiment on GAS [4] (GAS-infected mice, 96 hours after infection, all control mice disseminated) was 7 out of 9. The “weight (marker of morbidity)” value with GAS [4] (GAS-infected mice, sc 1 μg at 24 h then 500 ng at 48 and 72 h, 96 hours, vs mock) is given as “did not loose weight”. In addition, in the experiment on GAS [4] (GAS-infected mice, sc 1 μg at 24 h then 500 ng at 48 and 72 h, vs mock), the “signs of morbidity (rough hair coat, hunched posture)” value is reported as “didn't present any signs of morbidity”. In addition, in the experiment on GAS [4] (local injection at the site of infection (FIG. 2F)), the “systemic spread of infection” value is recorded as “prevents systemic spread of infection”.
As to LL-37 [reference compound], in the experiment on GAS NZ131 [2], the “bacteriostatic effect against GAS (inhibition of GAS growth)” value is “able to prevent the growth of the bacteria”. For the same molecule, the “bactericidal activity against GAS (bacterial titers vs control)” value with GAS NZ131 [3] is “significant reduction in bacterial titers”.

B1: CXCL1: rCXCL1 (R&D system, 1395-KC-025/CF), key neutrophil chemokine (protein, UniProt P12850 25-96, looked up)
Growth-regulated alpha protein: APIANELRCQCLQTMAGIHLKNIQSLKVLPSGPHCTQTEVIATLKNGREACLDPEAPLVQKIVQKMLKGVPK
As for B1, the “number of bacteria in skin of Hepc Δkerat mice” value with GAS [5] is reported as “decreased the number of bacteria at the level of WT mice”.
